This is an account of results in paper PMC7450938, “Prenatal to early postnatal neurotrophic treatment prevents Alzheimer-like behavior and pathology in mice” (Alzheimer's Research & Therapy, 2020).

The conditions of data set [1]: commercial service (APREDICA, Watertown, MA); cited from earlier work.
For data set [2], the system named is Aβ plaques. In words: Thioflavin-S-positive plaque load. The data set is classed as in vivo. To be noted: subiculum, 22-month-old 3xTg-AD mice; 6 sections per mouse, n = 4 mice; P021 diet E8-PND21. Here is the method: (§1) We treated 2- to 3-month-old pregnant 3xTg-AD and WT mothers with compound P021 in mouse chow, or with vehicle feed as control at E8 until their offspring/pups reached PND21, at which point the offspring were separated and put on standard mouse chow (Fig. 1). Treatment was administered as 60 nmol peptide/g formulated diet (Research Diets; New Brunswick, NJ, USA). The vehicle-treated control animals received the same diet but without the peptide. On average, each mouse consumed ~ 2.7 g diet/day.
Thioflavin-S–positive (TS+) plaque load was quantified on every 12th section (roughly six sections per set) of four animals from 22-month-old groups. A modified thioflavin-S staining protocol was used as follows. Free-floating brain sections were washed in large volumes of distilled water, incubated in 0.25% KMnO4 for 4–5 min, washed with water, and treated with a solution of 1% K2S2O5 and 1% oxalic acid for 40–60 s until the brown color was completely washed out. Sections were then incubated with 0.05% thioflavin-S in water in the dark for 8 min, followed by differentiation in 80% ethanol twice for 1 min each. […] The images were taken by using a Nikon 90i fluorescent microscope, threshold using ImageJ (v.1.46r), and TS+ plaque load was quantified in the hippocampus CA1 and subiculum areas.

The test system of data set [3] is PSD95, synapsin, synaptophysin, MAP2. In words: Western blots of dendritic and synaptic markers in hippocampus. The data set is classed as in vivo, mouse. The settings on record: 3xTg-AD mice. Here is the method: as §1
The tissue from the left cerebral hemisphere from each mouse stored at− 80 °C was homogenized in a Teflon-glass homogenizer to generate 10% (w/v) homogenate. The pre-chilled homogenization buffer contained 50 mM Tris–HCl (pH 7.4), 8.5% sucrose, 2 mM EDTA, 2 mM EGTA, 10 mM β-mercaptoethanol plus the following protease and phosphatase inhibitors: 0.5 mM AEBSF, 10 μg/mL aprotinin, 10 μg/mL leupeptin, 4 μg/mL pepstatin, 5 mM benzamidine, 20 mM β-glycerophosphate, 50 mM sodium fluoride, 1 mM sodium orthovanadate, and 100 nM okadaic acid. Each homogenate was boiled in 2× Laemmli sample buffer for 5 min, and protein concentration was measured by PierceTM 660-nm protein assay (Thermo Scientific; Rockford, IL, USA).
The samples were subjected to 10% SDS-PAGE and electro-transferred onto Immobilon-P membranes (EMD Millipore; Billerica, MA, USA). The blots were then probed with primary antibodies (Table 1) and developed with the corresponding HRP-conjugated secondary antibody and enhanced chemiluminescence (Pierce Biotechnology, Rockford, IL, USA). Densitometric quantification of protein bands in Western blots was analyzed using Multi Gauge version 3.0 software (FUJIFILM North America; Valhalla, NY, USA).

For data set [4] the following is noted: cited from earlier work. From the text: A central objective of the field of dementia research is to inhibit, or to at least effectively modify, the course of AD, but at present, no effective treatment or cure for AD is available. CNTF is a pluripotent neurotrophic factor that has a potent effect on the development and maintenance of the nervous system, inducing neuronal survival and differentiation by stimulating gene expression of sensory, sympathetic, and motor neurons. However, the clinical therapeutic usage of recombinant neurotrophic factors is limited because of the insurmountable hurdles of unfavorable pharmacokinetic ...

In data set [5] the test system is Aβ plaques. In words: Aβ immunofluorescence, amyloid plaques in brain sections. The data set is classed as in vivo, mouse. To be noted: 22-month-old 3xTg-AD mice, P021 diet E8-PND21. The procedure:
as §1
(§2) The complete right hemisphere was immersion-fixed in 4% paraformaldehyde in 0.1 M PBS for 24–48 h, followed by cryoprotection in a 30% sucrose solution at 4 °C overnight. Later, the 40-μm-thick sagittal sections were cut on a freezing microtome. […]
(§3) Immunofluorescence staining was performed on free-floating sections, and every 12th brain section was chosen for densitometry and quantification. For immunohistochemical quantification, six brain sections of four animals per group were analyzed. All stainings for fluorescence-intensity quantification were carried out under identical conditions, including all tissue samples for a particular staining processed at the same time, and experimental and control sections photographed under identical settings. […]

For another data set, the system named is GFAP. As to the kind of experiment: GFAP immunofluorescence, CA1. It is filed as in vivo, mouse. The settings on record: P021 diet E8-PND21. Here is the method:
as §1, §2, §3

Setting [6] is: 4 months, P021 diet E8-PND21, n = 3-4/group.

As for “Ac-DGGL^AG-NH2 [P021, 4-mer CNTF small molecule peptide mimetic to which adamantylated glycine was added at the C-terminal]”, the “crossing of the blood-brain barrier” value in data set [1] was “enough P021 crossed the BBB to exert its effect in the brain”. For the same substance, the “plaque burden by thioflavin-S staining” value in the data set on Aβ plaques [2] is “a significant decrease”. In data set [3] (setting [6]), the MAP2 deficit result is “only the PSD 95 deficit was rescued”, the PSD95 deficit result is reported as “rescued”, the synapsin deficit result is “only the PSD 95 deficit was rescued” and the synaptophysin deficit entry is on record as “only the PSD 95 deficit was rescued”. Further, the “levels of PSD95, synapsin, synaptophysin, and MAP2” value in data set [3] (22 months, P021 diet E8-PND21, not significant) is listed as “a trend for an increase”. Moreover, in data set [4], the BBB permeability result is given as “BBB-permeable”, the solubility in water entry is recorded as “water-soluble” and the systemic adverse effects result was “does not induce the systemic adverse effects associated with recombinant CNTF or BDNF”. Besides, the pharmacokinetic properties entry in data set [4] (oral administration) is on record as “suitable pharmacokinetic properties for oral administration”. In addition, the “plaque-occupied area (Aβ immunofluorescence)” value in the data set with Aβ plaques [5] (one half of the brain, 6 sections per mouse, n = 4 mice) is reported as “significantly decreased”. Also, in the data set with Aβ plaques [5] (subiculum, piriform cortex, forebrain and hippocampus, vs 3xTg-Vh), the “amyloid plaques detected by Aβ antibody” value is reported as “markedly reduced”. Also, the “astrocyte morphology at high magnification” value with GFAP (CA1, 22-month-old 3xTg-AD mice, 3xTg-Vh astrocytes amoeboid) was “ramified with long processes and small cell body (resting phenotype)”. The GFAP immunoreactivity entry in the data set with GFAP (CA1 region, 22-month-old 3xTg-AD mice) is reported as “rescued”.
